From patent publication US11166460B2, “α-amino acrylate microbicide, and preparation method therefor and uses thereof” (priority 2017, dated 2021)
Structures can show the parent of a compound that is named as a salt. Where two headings read alike, the source gives them in different places.

Columns and labels:
[1] = system: tobacco mosaic virus (TMV); assay: Anti-TMV curative activity (treatment mode), live friction inoculation on tobacco seedlings; format: in vivo; settings: for inhibition at 100 µg/mL: Tobacco mosaic virus
[2] = system: tobacco mosaic virus (TMV); assay: Anti-TMV inactivation activity (inactivation mode), compound mixed with TMV before inoculation of tobacco leaves; format: in vivo; settings: for inhibition at 100 µg/mL: Tobacco mosaic virus, read-out: Anti-TMV activity, Inactivation effect (inhibition)
[3] = system: tobacco mosaic virus (TMV); assay: Anti-TMV protective activity (protection mode), live friction inoculation on tobacco seedlings; format: in vivo; settings: for inhibition at 100 µg/mL: Tobacco mosaic virus, read-out: Anti-TMV activity, Protection effect (inhibition)
[4] = system: tobacco mosaic virus (TMV); assay: Anti-TMV inducing activity (induction mode), tobacco seedlings; format: in vivo; settings: for inhibition at 100 µg/mL: Tobacco mosaic virus
Alternaria solani = assay: Fungicidal activity, fungi growth rate method, AS; format: cell-based; settings: 50 μg/mL; for inhibition at 50 µg/mL: Alternaria solani
Botrytis cinerea = assay: Fungicidal activity, fungi growth rate method, BC; format: cell-based; settings: 50 μg/mL; for inhibition at 50 µg/mL: Botrytis cinerea
Cercospora arachidicola = assay: Fungicidal activity, fungi growth rate method, CA; format: cell-based; settings: 50 μg/mL; for inhibition at 50 µg/mL: Mycosphaerella arachidis
wheat Gibberella zeae = assay: microbe, parasite or virus in culture; format: cell-based; settings: for inhibition at 50 µg/mL: Fusarium graminearum
[5] = system: Phytophthora infestans (Mont) de Bary; assay: microbe, parasite or virus in culture; format: cell-based; settings: for inhibition at 50 µg/mL: Phytophthora infestans
Physalospora piricola = assay: Fungicidal activity, fungi growth rate method, PP; format: cell-based; settings: 50 μg/mL
Pellicularia sasakii = assay: Fungicidal activity, fungi growth rate method, PS; format: cell-based; settings: 50 μg/mL
Rhizoctonia cerealis = assay: Fungicidal activity, fungi growth rate method, RC; format: cell-based; settings: 50 μg/mL; for inhibition at 50 µg/mL: Ceratobasidium cereale
Sclerotinia sclerotiorum = assay: microbe, parasite or virus in culture; format: cell-based; settings: 50 μg/mL; for inhibition at 50 µg/mL: Sclerotinia sclerotiorum
[6] = 100 μg/mL, tobacco seedlings, checked on seventh day
[7] = 100 μg/mL, tobacco leaves, checked on seventh day
[8] = read-out: Anti-TMV activity, Curative effect (inhibition), 100 μg/mL, tobacco seedlings, checked on seventh day
[9] = read-out: Anti-TMV activity, Induction effect (inhibition), 100 μg/mL, tobacco seedlings
[10] = read-out: Fungicidal activity, inhibition, AS
[11] = read-out: Fungicidal activity, inhibition, BC
[12] = read-out: Fungicidal activity, inhibition, CA
[13] = read-out: Fungicidal activity, inhibition, GZ
[14] = read-out: Fungicidal activity, inhibition, PI
[15] = read-out: Fungicidal activity, inhibition, PP
[16] = read-out: Fungicidal activity, inhibition, PS
[17] = read-out: Fungicidal activity, inhibition, RC
[18] = read-out: Fungicidal activity, inhibition, SS
[19] = 100 μg/mL, tobacco seedlings, read-out: Anti-TMV activity, Induction effect (inhibition)

`O=C(N/C(=C\c1ccccc1)C(=O)N1CCC(O)(c2ccc(Br)cc2)CC1)C1CCNCC1` (as salt: hydrochloride) [Compound 4, (Z)-N-[1-[[4-(4-bromophenyl)-4-hydroxy-1-piperidinyl]carbonyl]-2-phenylethenyl]-1-piperidine-4-carboxamide-hydrochloride] gave a melting point of 147 to 149 °C.

In the case of `CSC(=O)c1cccc2nnsc12` [BTH, Acibenzolar-S-Methyl, reference compound], the “Anti-TMV activity, Curative effect (inhibition)” value [1, 6] is reported as 50.00%, the “Anti-TMV activity, Inactivation effect (inhibition)” value [2, 7] is reported as 63% and the “Anti-TMV activity, Protection effect (inhibition)” value [3, 6] is reported as 76%. The “Anti-TMV activity, Induction effect (inhibition)” value ([4]; 100 μg/mL, tobacco seedlings) was 96%.

`O=C(N/C(=C\c1ccccc1)C(=O)N1CCC(O)(c2ccc(Br)cc2)CC1)C1CCNCC1` [Compound 4, (Z)-N-[1-[[4-(4-bromophenyl)-4-hydroxy-1-piperidinyl]carbonyl]-2-phenylethenyl]-1-piperidine-4-carboxamide-hydrochloride] showed an inhibition at 100 µg/mL [1, 8] of 0%, an inhibition at 100 µg/mL [2] of 3% and an inhibition at 100 µg/mL [3] of 1%. It also gave an inhibition at 100 µg/mL [4, 9] of 1%, an inhibition at 50 µg/mL (Alternaria solani; [10]) of 21% and an inhibition at 50 µg/mL (Botrytis cinerea; [11]) of 24%. It also gave an inhibition at 50 µg/mL (Cercospora arachidicola; [12]) of 6%, an inhibition at 50 µg/mL (wheat Gibberella zeae; [13]) of 43% and an inhibition at 50 µg/mL [5, 14] of 11%. It also gave an inhibition at 50 µg/mL (Physalospora piricola; [15]) of 12%, an inhibition at 50 µg/mL (Pellicularia sasakii; [16]) of 9% and an inhibition at 50 µg/mL (Rhizoctonia cerealis; [17]) of 23%. For the same compound, the inhibition at 50 µg/mL (Sclerotinia sclerotiorum; [18]) was 47%.

With `O=C(N/C(=C\c1ccccc1)C(=O)N1CCC(O)(c2ccc(Br)cc2)CC1)c1ccccc1` [Compound 76, (Z)-N-[1-[[4-(4-bromophenyl)-4-hydroxy-1-piperidinyl]carbonyl]-2-phenylethenyl]benzamide, reference compound] the inhibition at 100 µg/mL [1, 8] was 0%, the inhibition at 100 µg/mL [2] was 29% and the inhibition at 100 µg/mL [3] was 38%. It also gave an inhibition at 100 µg/mL [4, 9] of 15%, an inhibition at 50 µg/mL (Alternaria solani; read-out: Fungicidal activity (inhibition) against AS: Alternaria solani) of 14% and an inhibition at 50 µg/mL (Alternaria solani; [10]) of 14%. It also gave an inhibition at 50 µg/mL (Botrytis cinerea; read-out: Fungicidal activity (inhibition) against BC: Botrytis cinerea) of 18%, an inhibition at 50 µg/mL (Botrytis cinerea; [11]) of 18% and an inhibition at 50 µg/mL (Cercospora arachidicola; read-out: Fungicidal activity (inhibition) against CA: Cercospora arachidicola) of 24%. It also gave an inhibition at 50 µg/mL (Cercospora arachidicola; [12]) of 24%, an inhibition at 50 µg/mL (wheat Gibberella zeae; read-out: Fungicidal activity (inhibition) against GZ: wheat Gibberella zeae) of 43% and an inhibition at 50 µg/mL (wheat Gibberella zeae; [13]) of 43%. The inhibition at 50 µg/mL ([5]; read-out: Fungicidal activity (inhibition) against PI: Phytophthora infestans (Mont) de Bary) was 24%, the inhibition at 50 µg/mL [5, 14] was 24% and the inhibition at 50 µg/mL (Physalospora piricola; read-out: Fungicidal activity (inhibition) against PP: Physalospora piricola) was 15%. It also gave an inhibition at 50 µg/mL (Physalospora piricola; [15]) of 15%, an inhibition at 50 µg/mL (Pellicularia sasakii; read-out: Fungicidal activity (inhibition) against PS: Pellicularia sasakii) of 14% and an inhibition at 50 µg/mL (Pellicularia sasakii; [16]) of 14%. The inhibition at 50 µg/mL (Rhizoctonia cerealis; read-out: Fungicidal activity (inhibition) against RC: Rhizoctonia cerealis) was 15%, the inhibition at 50 µg/mL (Rhizoctonia cerealis; [17]) was 15% and the inhibition at 50 µg/mL (Sclerotinia sclerotiorum; read-out: Fungicidal activity (inhibition) against SS: Sclerotinia sclerotiorum) was 50%. It also gave an inhibition at 50 µg/mL (Sclerotinia sclerotiorum; [18]) of 50%.

For `CNCC(=O)N[C@@H](CO)C(=O)N[C@H]1[C@H](O)[C@@H](O)[C@H](n2ccc(N)nc2=O)O[C@@H]1C(N)=O` [Ningnanmycin, ningnanmycin, reference compound], the “Anti-TMV activity, Curative effect (inhibition)” value [1, 6] was 62%, the inhibition at 100 µg/mL [1, 8] was 63% and the inhibition at 100 µg/mL [2] was 58%. For the same compound, the inhibition at 100 µg/mL [3] was 71% and the inhibition at 100 µg/mL [4, 9] was 82%.

Compound `NC(=O)c1ncn([C@@H]2O[C@H](CO)[C@@H](O)[C@H]2O)n1` [Ribavirin, ribavirin, reference compound] has an inhibition at 100 µg/mL [1, 8] of 28%, an inhibition at 100 µg/mL [2, 7] of 81% and an inhibition at 100 µg/mL [3] of 58%. It also gave an inhibition at 100 µg/mL [4, 19] of 4%.

For `Cc1ccc(NC(=O)c2snnc2C)cc1Cl` [TDL, Tiadinil, reference compound], the inhibition at 100 µg/mL ([1]; 100 μg/mL, tobacco seedlings, checked on seventh day, read-out: Anti-TMV activity, Curative effect (inhibition)) was 49%, the inhibition at 100 µg/mL [2, 7] was 55% and the inhibition at 100 µg/mL [3, 6] was 32%. For the same compound, the inhibition at 100 µg/mL [4, 19] was 73%.

In the case of `CO/C=C(/C(=O)OC)c1ccccc1Oc1cc(Oc2ccccc2C#N)ncn1` [azoxystrobin, reference compound], the “Fungicidal activity (inhibition) against AS: Alternaria solani” value (Alternaria solani) is reported as 79%, the “Fungicidal activity (inhibition) against BC: Botrytis cinerea” value (Botrytis cinerea) is reported as 78% and the “Fungicidal activity (inhibition) against CA: Cercospora arachidicola” value (Cercospora arachidicola) is reported as 81%. For the same compound, the “Fungicidal activity (inhibition) against GZ: wheat Gibberella zeae” value (wheat Gibberella zeae; 50 μg/mL) was 100%, the “Fungicidal activity (inhibition) against PI: Phytophthora infestans (Mont) de Bary” value ([5]; 50 μg/mL) was 91% and the “Fungicidal activity (inhibition) against PP: Physalospora piricola” value (Physalospora piricola) was 81%. The “Fungicidal activity (inhibition) against PS: Pellicularia sasakii” value (Pellicularia sasakii) was 92%, the “Fungicidal activity (inhibition) against RC: Rhizoctonia cerealis” value (Rhizoctonia cerealis) was 67% and the “Fungicidal activity, inhibition, SS” value (Sclerotinia sclerotiorum) was 100%.
